Test results: patent EP1086695B1, “Antiviral compositions comprising yohimbine as active principle” (Leone, Enzo, priority 1999, dated 2001)
Structures can show the parent of a compound that is named as a salt.

What was measured:
[1] = system: herpetic keratoconjunctivitis; assay: Example 2: clinical treatment of herpetic keratitis; type: in vivo, subjects
Text: These re-occurrences of acute episodes were, however, mastered with three-week cycles of treatment using the drug in question, with three-week rest intervals between one cycle and another.

herpes progenitalis = assay: Example 4: treatment of herpes progenitalis in a serious form (single case); type: in vivo, person
Protocol: The patient took 5 mg/day of yohimbine HCI for more than one year with three-week rest intervals every three months, using a galenical preparation consisting of: […]

herpes virus 1 or 2 = assay: Example 1: clinical treatment of herpes; type: in vivo; conditions: 5 mg/day; 30 patients
Protocol: In the course of 7 years, 30 patients suffering from herpes virus 1 or 2 were treated, the said patients still being currently under supervision.
The treatment involved the use of 5 mg/day of yohimbine HCI until resolution of the dermatological affections.

influenza = assay: Example 3: clinical treatment of influenza syndromes; type: in vivo; conditions: 5 mg/day, 7-10 day treatment; including elderly patients and children
HSV-1 = conditions: against HSV-1 in their screening system; cited from earlier work
[2] = Doses effective as antiviral agent (general finding); type: in vivo; conditions: expressed as free base
Protocol: The preferred dosage is 5 mg/day from the onset of the first signs of the viral infection up to its cure. In the case of long courses of treatment, it is preferable to follow a scheme of two- or three-month cycles with intervals of rest of 10-15 days. Higher doses than the range indicated may result in a failure of the curative effect, this being due to the peculiarity of yohimbine, observed on various organs and apparatus, namely of stimulating an action (for example, splenocontraction) at a certain dose level, and the opposite action (splenodilation) at higher dose levels. Doses below the limit indicated may be therapeutically ineffective.

With `Nc1nc2c(ncn2COCCO)c(=O)[nH]1` [acyclovir] the “benefit in terms of recidivation” value ([1]; earlier classic treatment of the same 10 subjects) was “without any benefit” and the “outcome of earlier treatment” value (herpes progenitalis; earlier treatment with specific drugs) was “unsuccessfully”.

With `COC(=O)[C@@H]1[C@H]2C[C@H]3c4[nH]c5ccccc5c4CCN3C[C@@H]2CC[C@@H]1O` [yohimbine HCI, yohimbine hydrochloride] the relapse (herpes virus 1 or 2) was “considerable reduction in the number of cases of relapse”, the relapse ([1]; 5 mg/day, 10 subjects) was “the cases of relapse were less frequent and of shorter duration” and the pain ([1]; 5 mg/day, in periods when the affection became more acute) was “the pain involved became more tolerable”. For the same molecule, the tolerability of treatment ([1]; treatment lasting several years, three-week cycles) was “without any problems of any sort arising”, the outcome of influenza (influenza) was “complete resolution” and the side effect (herpes progenitalis; 5 mg/day for more than one year) was “did not reveal any side effect”. For the same molecule, the “lesions and vesicular eruptions” value (herpes progenitalis; 5 mg/day tablet, three-week rest intervals every three months) was “within approximately six months led to the disappearance of the lesions and of the vesicular eruptions”, the recurrence (herpes progenitalis; follow-up after treatment) was “Only one other slight episode of recurrence occurred five years later” and the antiherpes activity (HSV-1) was “inactive”.

In the case of `COC(=O)[C@@H]1[C@H]2C[C@H]3c4[nH]c5ccccc5c4CCN3C[C@@H]2CC[C@@H]1O` [yohimbine, methyl 17-alpha-hydroxy-20-alpha-yohimban-16-beta-carboxylate], the “doses at which yohimbine is effective as antiviral agent” value [2] is reported as 3 to 10 mg/day.
